According to paper PMC4341462, “Human RNASET2 derivatives as potential anti-angiogenic agents: actin binding sequence identification and characterization” (Oncoscience, 2014):

Key:
[1] = target: T1, Actin from rabbit muscle (Sigma A2522) (Oryctolagus cuniculus, UniProt P68135); assay: Surface plasmon resonance (BIAcore 3000) of actin binding; conditions: actin on CM5 chip, amine coupling, 5 concentrations, 10 μl/min, 25°C
T1 construct: purchased Sigma A2522; host or cells: rabbit muscle (tissue-purified)
Protocol: SPR was performed on a BIAcore 3000 instrument (BIAcore, Uppsala, Sweden). Actin was diluted in 100 mM CH3COONa pH 4.6 to a final concentration of 20μg/ml (200μl total) resulting in ~1ng immobilized actin on a CM5 BIAcore sensor chip (GE Healthcare Bio-Sciences AB) using the standard BIAcore amine coupling chemistry protocol. The CM5 chip allows four separate flow cells to be operated in the BIAcore 3000 instrument used in these experiments. Coupling is achieved by activating the surface of the sensor chips with equal volumes of 50 mM N-hydroxysuccimide (NHS)/200 mM Nethyl-N-(3-[…])-carboiimide (EDC) (BIAcore, AB, Uppsala, Sweden) to form activated carboxyl groups. In the BIAcore protocol the binding is believed to be between carboxyl groups on the surface and amine groups on the protein. The actin solution (15 μg/ml) was then run over the chip for 5 min at a rate of 10 μl/min, where the amine groups on protein react with the activated esters. In the final stage of immobilization, the surface was blocked by 1M ethanol amine, pH 8.0. The binding assay was performed by injecting the hRNASET2, trT2-50, trT2-50m or peptides solutions in running buffer (HBS-10mM Hepes, 150mM Sodium Chloride, 3mM EDTA, 0.005% Polysorbate 20) at 5 different concentrations at a flow rate of 10 μl/min at 25°C. Injections were performed simultaneously over all four channels and blank surface a plain dextran matrix (channel 1) was used as control. The net signal was obtained by subtracting the blank signal from the signal of the immobilized surface. The association phase for protein or peptides binding to actin was followed for 4 min, and dissociation phases were monitored for 3 min. Surface regeneration between consecutive binding cycles included a 1 min injection of 1 mM NaOH. The response was monitored as a function of time (sensorgram) at 25°C. Multi-concentration data were globally fit using BIA evaluation 3.2 software.
The strength of a two molecule interaction is characterized by the equilibrium dissociation (binding) constant KD =[P][L]/[PL], where [P] is the concentration of free protein (or peptide), [L] the concentration of ligand and [PL] the concentration of the complex. At equilibrium, KD is related to the rate of complex formation (described by the association rate constant, ka) and the rate of breakdown (described by the dissociation rate constant, kd ), such that KD =[…]. A high affinity interaction is characterized by a low KD, rapid recognition and binding by high ka, and stability of complex formation by low kd.

[2] = tested on: CAM; assay: Ex ovo CAM angiogenesis assay; format: in vivo, chicken; conditions: 3 μg on filter paper disk every day for 4 days from day 8, vs PBS; N=3 for hRNASET2 and trT2-50, N=5 for peptides and PBS
Protocol: In this assay we used fertilized eggs cracked into a petri dish after […] of incubation in 37°C and 60% humidity. In the following days, the embryos developed a vascular network. Treatment began on the eighth day of incubation and was delivered drop-wise onto disks of Whatman paper that had been placed on the developing vascular regions. The treatment was performed every day for 4 days. The number of blood vessels around the treated disk was counted every day.
Fertilized chicken eggs were incubated horizontally at 37°C and humidity of 60 - 62% and cracked into Petri dishes at embryonic day 4. Incubation was continued under the same conditions. On day 8, sterile filter paper disks (5.5 mm in diameter) were layered on top of the CAM and soaked either with 5 μl PBS or 3 μg hRNASET2, trT2-50, peptide A103-Q159 or peptide K108-K133. Treatment was given every day for four days, then, the number of blood vessels around the treated disks was counted. (For hRNASET2 and trT2-50, N=3; for peptide A103-Q159, peptide K108-K133 and PBS, N=5).

[3] = tested on: HUVECs; assay: Immunofluorescence: localization and co-localization of peptide and angiogenin in HUVECs; format: cell-based, human; conditions: anti-angiogenin (red)
Protocol: Cells were cultured on PBS-covered slides in 12-well plates with 0.1% pork gelatin (Sigma-Aldrich) and were incubated with peptide K108-K133 or angiogenin. Cells were fixed with 3% Paraformaldehyde (PFA) (Merck Millipore, Dermstadt, Germany) containing 0.5% triton, washed three times with PBS and blocked with 5% donkey serum (Jackson ImmunoResearch). Rabbit anti-angiogenin (Merck Millipore) was added (1:100 dilution; prepared in 5% donkey serum) and incubated overnight at 4°C. After washing three times with TBST, the slides were incubated for 1 h with Alexa 488-conjugated anti-rabbit antibody (Invitrogen Life Technologies) and phalloidin tetramethylrhodamine B isothiocyanate–conjugated […] (Sigma-Aldrich), and then washed, and mounted with a mixture containing 30% mounting medium, 4′,6-diamidino-2-phenylindole (DAPI) (Santa Cruz Biotechnology Inc., Santa Cruz, CA) and 70% fluoromount (Sigma-Aldrich). The slides were viewed under a Leicactr4000 laser scanning confocal microscope.

[4] = tested on: HUVEC (VEGF-induced tube formation); assay: HUVEC tube formation assay on Matrigel, VEGF-induced; format: cell-based, human; conditions: 2 μM, VEGF 1 μg/ml, 8 h, vs PBS control, N=5
Protocol: (§1) Figure 4 trT2-50m and peptides A103-Q159 (57aa) and K108-K133 (26aa) inhibit angiogenin- and VEGF-induced HUVEC tube formation on Matrigel Freshly isolated HUVECs were plated in a 96-well plate previously coated with Matrigel. (A): Cells were treated with either peptide A103-Q159, K108-K133 or K108-L123 (2μM) or PBS (control), in addition to angiogenin or VEGF (1 μg/ml). (B): tube formation was assessed using Image J, the results are represented as percent of control. […] (C): Cells were treated with trT2-50m (2μM) or PBS (control), in addition to angiogenin or VEGF (1 μg/ml).
(§2) Freshly isolated HUVEC were maintained in endothelial cell growth medium (EGM) supplemented with SingleQuots (EGM BulletKit CC-3124, Lonza). They were then plated in a 96-well plates (14 × 10^3 cells/well) previously coated with growth factor-depleted Matrigel (Becton-Dickinson, Bedford, MA) in M199 medium supplemented with 20% FBS, 1% glutamine, 1% antibiotic–antimycotic solution (Biological Industries) and 50 U/100 ml heparin (Biomedical Technologies Inc., Stoughton, MA). Cells were treated with trT2-50m (2 μM), peptides or PBS, in addition to angiogenin (R&D Systems, Inc. Minneapolis, MN), or VEGF (Protein Laboratories, Rehovot, Israel) (1 μg/ml each). After 8 h of incubation at 37°C, the plates were photographed and the extent of tube formation was counted using Image J (NIH, Bethesda, MD) software. […]

[5] = target: actin (Oryctolagus cuniculus, UniProt P68135); assay: Actin binding solid phase assay (ELISA); conditions: from 500 ng/well, 1 h at 37°C, discussion also refers to BIAcore
Text: For further insight on the actin binding site within the hRNASET2 protein sequence we tested 29 suspected peptides for their ability to bind actin. The actin-binding capability of the 29 synthetic peptides was compared to the binding capability of trT2-50 using a solid phase actin binding assay. […] We next tested the interaction kinetics to evaluate the interaction nature as described for trT2-50 and trT2-50m. […] In addition, there is a linear relation between the protein concentration and the maximal (steady-state) response for peptides A103-Q159 and K108-K133, indicating the pseudo-first-order regime in relation to the immobilized actin.
96-well plates (MaxiSorp® flat-bottom 96-well plate, Fisher Scientific Inc., Fair Lawn, NJ) were coated with 500 ng actin in 100 μl carbonate-bicarbonate buffer (pH 9.5) for 1 h at 37°C. The plate was washed once with TBS and then blocked with 3% BSA in 200 μl TBS buffer at 37°C, for 1 h. Wells were then washed once with 250 μl TBS. trT2-50, trT2-50m or each of the 29 peptides were added at 1:2 dilutions in 100 μl TBS, starting from 500 ng/well, incubated for 1 h at 37°C and then washed three times with TBS containing 0.1% Tween-20 (TBST). […] Absorbance at 655 nm was measured 10 min thereafter using a Power Wave 200 Microplate Scanning Spectrophotometer (Bio-Tek Instrument, Winooski, VT). Affinity was evaluated by double reciprocal plot.

[6] = tested on: HUVEC (angiogenin-induced tube formation); assay: HUVEC tube formation assay on Matrigel, angiogenin-induced; format: cell-based, human; conditions: 2 μM, angiogenin 1 μg/ml, 8 h, vs PBS control, N=5
Protocol: as §1, §2

“hRNASET2: full-length human RNASET2, produced in CHO, T2BIOTECH Ltd” was tested, and the “association rate Ka” value ([1]; HBS (10mM Hepes, 150mM NaCl, 3mM EDTA, 0.005% Polysorbate 20), association 4 min, dissociation 3 min, global fit BIAevaluation 3.2) was 2.40 × 10^3 (1/Ms), the “dissociation rate Kd” value ([1]; HBS (10mM Hepes, 150mM NaCl, 3mM EDTA, 0.005% Polysorbate 20), dissociation 3 min, global fit BIAevaluation 3.2) was 0.00346 s⁻¹ and the Kd ([1]; HBS, determined from kinetic analyses, BIAevaluation 3.2, read-out: dissociation constant KD) was 1440 nM. The “blood vessels around the treated disk” value [2] was “fewer blood vessels developed compared to the control”.

For “angiogenin: angiogenin (R&D Systems, Inc. Minneapolis, MN)”, the “localization of angiogenin in presence of peptide K108-K133” value ([3]; 2 and 8 h of incubation with the peptide and angiogenin) was “Same angiogenin localization was observed after 2 and 8 h” and the “localization of angiogenin in presence of peptide K108-K133” value ([3]; 10 min of incubation with the peptide and angiogenin) was “located in the nucleus, the cytoplasm surrounding the nucleus, on the actin fibers and outside the cell”.

For “Peptide K108-L123: peptide K108-L123 (16 aa) that failed to bind actin”, the “inhibition of VEGF-induced tube formation (in words)” value [4] was “unable to inhibit tube formation”, the “ability to bind actin (in words)” value [5] was “failed to bind actin” and the “inhibition of angiogenin-induced tube formation (in words)” value [6] was “unable to inhibit tube formation”.

For `CC[C@H](C)[C@H](NC(=O)CNC(=O)[C@H](CC(C)C)NC(=O)[C@H](CCCCN)NC(=O)[C@H](CC(C)C)NC(=O)[C@H](CC(C)C)NC(=O)[C@@H](NC(=O)[C@H](CO)NC(=O)[C@H](CC(N)=O)NC(=O)[C@H](CC(C)C)NC(=O)[C@H](CC(=O)O)NC(=O)[C@H](CC(C)C)NC(=O)[C@H](CCC(=O)O)NC(=O)[C@H](CCCNC(=N)N)NC(=O)[C@H](Cc1ccc(O)cc1)NC(=O)[C@H](CC(C)C)NC(=O)[C@H](CCC(=O)O)NC(=O)[C@H](CC(C)C)NC(=O)[C@H](CO)NC(=O)[C@H](CCCNC(=N)N)NC(=O)CNC(=O)[C@H](Cc1ccccc1)NC(=O)[C@H](Cc1ccc(O)cc1)NC(=O)[C@H](CCCCN)NC(=O)[C@@H](N)CCCCN)C(C)C)C(=O)N[C@@H](CCCCN)C(=O)O` [Peptide K108-K133], the kon ([1]; HBS (10mM Hepes, 150mM NaCl, 3mM EDTA, 0.005% Polysorbate 20), association 4 min, dissociation 3 min, global fit BIAevaluation 3.2, read-out: association rate Ka) was 14200 M⁻¹ s⁻¹ and the koff ([1]; HBS (10mM Hepes, 150mM NaCl, 3mM EDTA, 0.005% Polysorbate 20), dissociation 3 min, global fit BIAevaluation 3.2, read-out: dissociation rate Kd) was 0.0458 s⁻¹.
